Source: patent US6090787A, “Antithrombotic agents” (Eli Lilly and Company, priority 1999, dated 2000)
Square brackets hold non-standard residues; d marks the D form. Peptide text beside a SMILES is read from it. dPip = O=C(O)[C@H]1CCCCN1; Sar = CNCC(=O)O

How the values were obtained:
[1] = molecular target: T1, Bovine trypsin (Bos taurus, UniProt P00760); assay: Serine protease selectivity, Kass, trypsin chromogenic assay; assay type: biochemical; conditions: apparent association constant
T1 construct: purchased Worthington Biochemicals, Freehold, N.J
T1 sequence (P00760 24-246): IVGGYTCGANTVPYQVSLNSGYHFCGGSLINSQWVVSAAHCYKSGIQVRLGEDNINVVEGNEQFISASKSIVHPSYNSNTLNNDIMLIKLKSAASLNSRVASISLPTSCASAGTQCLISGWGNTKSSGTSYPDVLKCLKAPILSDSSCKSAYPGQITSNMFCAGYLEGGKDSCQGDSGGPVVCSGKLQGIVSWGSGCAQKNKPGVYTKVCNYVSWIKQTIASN
Protocol: (§1) By substantially following the procedures described above for human thrombin, and using other human blood coagulation system serine proteases and proteases of the fibrinolytic system with the appropriate chromogenic substrates, identified below, selectivity of the compounds of the present invention with respect to the coagulation factor serine proteases and with respect to the fibrinolytic system serine proteases are evaluated as well as their substantial lack of interference with serine proteases of the fibrinolytic system. Thrombin inhibitors preferably should spare fibrinolysis induced by urokinase, tissue plasminogen activator (t-PA) and streptokinase. This would be important to the therapeutic use of such agents as an adjunct to streptokinase, t-PA or urokinase thrombolytic therapy and to the use of such agents as an endogenous fibrinolysis-sparing (with respect to t-PA and urokinase) antithrombotic agent. In addition to the lack of interference with the amidase activity of the fibrinolytic proteases, such fibrinolytic system sparing can be studied by the use of human plasma clots and their lysis by the respective fibrinolytic plasminogen activators.
Human factors X, Xa, IXa, XIa, and XIIa are purchased from Enzyme Research Laboratories, South Bend, Ind.; human urokinase from Leo Pharmaceuticals, Denmark; and recombinant activated Protein C (aPC) is prepared at Eli Lilly and Co. substantially according to U.S. Pat. No. 4,981,952 incorporated by reference herein in its entirety. Chromogenic substrates: N--Benzoyl--Ile--Glu--Gly--Arg--p--nitroanilide (for factor Xa); N--Cbz--D--Arg--Gly--Arg--p--nitroanilide (for factor IXa assay as the factor Xa substrate); Pyroglutamyl--Pro--Arg--p--nitroanilide (for Factor XIa and for aPC); H--D--Pro--Phe--Arg--p--nitroanilide (for factor XIIa); and Pyroglutamyl--Gly--Arg--p--nitroanilide (for urokinase); are purchased from KabiVitrum, Stockholm, Sweden, or from Midwest Biotech, Fishers, Indiana. Bovine trypsin is purchased from Worthington Biochemicals, Freehold, N.J., and human plasma kallikrein from Kabi Vitrum, Stockholm, Sweden. Chromogenic substrate H--D--Pro--Phe--Arg--p--nitroanilide for plasma kallikrein is purchased from Kabi Vitrum, Stockholm, Sweden. N--Benzoyl--Phe--Val--Arg--p--nitroanilide, the substrate for human thrombin and for trypsin, is synthesized according to procedures described above for the compounds of the present invention, using known methods of peptide coupling from commercially available reactants or purchased from Midwest Biotech, Fishers, Ind.

[2] = test system: human plasma; assay: Human plasma anticoagulation, prothrombin time (PT); conditions: concentration required to double the PT, linear extrapolation
Protocol: Dog plasma and rat plasma is obtained from conscious mixed-breed hounds (either sex, Hazelton-LRE, Kalamazoo, Mich., U.S.A.) or from anesthetized male Sprague-Dawley rats (Harlan Sprague-Dawley, Inc., Indianapolis, Ind., U.S.A.) by venipuncture into 3.8 percent citrate. Fibrinogen is prepared from in-date ACD human blood as the fraction I-2 according to previous procedures and specifications. Smith, Biochem. J., 185, 1-11 (1980); and Smith, et al., Biochemistry, 11, 2958-2967 (1972). Human fibrinogen is also purchased as 98 percent pure/plasmin free from American Diagnostica, Greenwich, Conn. Coagulation reagents ACTIN, Thromboplastin, and Human plasma are from Baxter Healthcare Corp., Dade Division, Miami, Fla. Bovine thrombin from Parke-Davis ([…], Mich.) is used for coagulation assays in plasma.
Coagulation assay procedures are as previously described. Smith, et al., Thrombosis Research, 50, 163-174 (1988). A CoAScreener coagulation instrument (American LABor, Inc.) is used for all coagulation assay measurements. The prothrombin time (PT) is measured by adding 0.05 mL saline and 0.05 mL Thromboplastin-C reagent to 0.05 mL test plasma. The activated partial thromboplastin time (APTT) is measured by incubation of 0.05 mL test plasma with 0.05 mL Actin reagent for 120 seconds followed by 0.05 mL CaCl2 (0.02 M). The thrombin time (TT) is measured by adding 0.05 mL saline and 0.05 mL thrombin (10 NIH units/mL) to 0.05 mL test plasma. The compounds of formula I are added to human or animal plasma over a wide range of concentrations to determine prolongation effects on the APTT, PT, and TT assays. Linear extrapolations are performed to estimate the concentrations required to double the clotting time for each assay.

[3] = molecular target: T2, Human plasmin (Homo sapiens, UniProt P00747); assay: Fibrinolytic protease selectivity, Kass, plasmin chromogenic assay; assay type: biochemical; conditions: apparent association constant
T2 construct: Human plasmin is purchased from Boehringer Mannheim; purchased Boehringer Mannheim, Indianapolis, Indiana
T2 sequence (P00747 581-810 limits assumed): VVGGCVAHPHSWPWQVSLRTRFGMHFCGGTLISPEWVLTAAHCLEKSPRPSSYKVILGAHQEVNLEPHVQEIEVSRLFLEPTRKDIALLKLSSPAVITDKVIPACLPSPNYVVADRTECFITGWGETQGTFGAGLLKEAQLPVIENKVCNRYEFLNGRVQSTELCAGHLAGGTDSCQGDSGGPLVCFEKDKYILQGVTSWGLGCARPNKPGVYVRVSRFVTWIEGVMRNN
T2 sequence (P00747 97-580 partner limits assumed): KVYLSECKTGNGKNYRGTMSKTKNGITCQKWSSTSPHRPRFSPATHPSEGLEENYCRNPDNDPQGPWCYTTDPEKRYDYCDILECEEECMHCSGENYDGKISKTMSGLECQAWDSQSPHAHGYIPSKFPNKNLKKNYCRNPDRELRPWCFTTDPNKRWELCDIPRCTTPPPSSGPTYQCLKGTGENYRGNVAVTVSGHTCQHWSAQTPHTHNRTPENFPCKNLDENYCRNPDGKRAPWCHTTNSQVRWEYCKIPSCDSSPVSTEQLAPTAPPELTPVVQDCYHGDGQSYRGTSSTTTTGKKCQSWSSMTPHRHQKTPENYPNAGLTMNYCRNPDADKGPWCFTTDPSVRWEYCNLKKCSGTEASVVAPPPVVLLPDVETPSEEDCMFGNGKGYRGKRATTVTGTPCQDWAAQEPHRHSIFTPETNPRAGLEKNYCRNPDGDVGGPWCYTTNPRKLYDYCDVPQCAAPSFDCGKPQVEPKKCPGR
Protocol: as §1
Human plasmin is purchased from Boehringer Mannheim, Indianapolis, Indiana; nt-PA is purchased as single chain activity reference from American Diagnostica, Greenwich, Conn.; modified-t-PA6 (mt-PA6) is prepared at Eli Lilly and Company by procedure known in the art (See, Burck, et al., J. Biol. Chem., 265, […] (1990). Plasmin chromogenic substrate H--D--Val--Leu--Lys--p--nitroanilide and tissue plasminogen activator (t-PA) substrate H--D--Ile--Pro--Arg--p--nitroanilide are purchased from Kabi Vitrum, Stockholm, Sweden.

Enzyme Kass Trypsin [1] [L/mol × 10^6] | Enzyme Kass Plasmin [3] [L/mol × 10^6] | Compound | Human Plasma Anticoagulation 2 × Clotting time PT [2]
2.7 | 0.44 | Cl.Cl.N=C(N)NCCC[C@@H](C=O)NC(=O)CN(CCc1ccccc1)C(=O)[C@H]1CCCCN1 [Example 8, D-homoprolyl-N-(2-phenylethyl)glycyl-L-argininal dihydrochloride] | 2,000 ng/mL
0.88 | 0.031 | CN(CC(=O)N[C@H](C=O)CCCNC(=N)N)C(=O)[C@H]1CCCCN1.Cl.Cl [Example 1, D-homoprolyl-N-methylglycyl-L-argininal dihydrochloride] (H-[dPip]-[Sar]-Arg-aldehyde) | 4,800 ng/mL

Compound | Enzyme Kass Trypsin [1] [L/mol × 10^6] | Enzyme Kass Plasmin [3] [L/mol × 10^6] | Human Plasma Anticoagulation 2 × Clotting time PT [2]
CC(C)CCN(CC(=O)N[C@H](C=O)CCCN=C(N)N)C(=O)[C@H]1CCCCN1.Cl.Cl [Example 6, D--hPro--N(isoamyl)Gly--ArgH.2HCl] | 5.9 | 0.059 | 2,600 ng/mL
